# From patent US10093713B2, “GIP-GLP-1 dual agonist compounds and methods” (priority 2013, dated 2018)
# Where two headings read alike, the source gives them in different places. *1 amine or outer side, *2 acyl side, *3 side chain or, on linkers, in order; H or OH if unused. Where a SMILES comes first, the peptide text is derived from it. Side-chain parts run from the residue outwards. [ ]: non-standard residue; d: D form. The star is where a group is joined. C20 diacid = O=C(O)CCCCCCCCCCCCCCCCCCC(=O)*; C18 diacid = O=C(O)CCCCCCCCCCCCCCCCC(=O)*; γGlu = O=C(O)[C@H](CCC(=O)[*:2])N[*:1]; Dap = NC[C@H](N)C(=O)O; AEEA = NCCOCCOCC(=O)O; Aib = CC(C)(N)C(=O)O
# What was measured:
# human GIP R = target: T1, human GIP R (Homo sapiens, UniProt P48546); experiment: Human GIP receptor (GIP R) activity assay, cAMP induction (AlphaScreen) in HEK293 cells; type: cell-based; conditions: read-out: hGIP-R cAMP EC50 average value
# T1 construct: expressed in transfected cells
# T1 sequence (P48546 22-466): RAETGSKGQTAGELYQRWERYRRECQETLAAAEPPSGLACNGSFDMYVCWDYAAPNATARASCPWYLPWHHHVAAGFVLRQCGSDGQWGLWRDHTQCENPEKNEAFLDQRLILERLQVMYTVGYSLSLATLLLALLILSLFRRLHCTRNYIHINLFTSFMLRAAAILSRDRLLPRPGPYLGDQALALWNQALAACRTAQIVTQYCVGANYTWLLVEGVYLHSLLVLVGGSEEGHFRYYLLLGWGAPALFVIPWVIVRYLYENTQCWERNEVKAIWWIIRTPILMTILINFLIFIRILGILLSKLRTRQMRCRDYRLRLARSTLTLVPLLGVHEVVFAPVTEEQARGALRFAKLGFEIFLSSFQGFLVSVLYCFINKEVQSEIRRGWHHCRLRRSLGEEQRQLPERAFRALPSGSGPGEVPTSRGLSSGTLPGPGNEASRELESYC
# Procedure, shortened: (§1)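 Stable HEK293 clones expressing human GIP R or GLP-1 R, seeded 1 day before; cells washed in Tyrode's buffer (10 mM HEPES, pH 7.4), stimulated, then lysed. cAMP measured by AlphaScreen bead competition (1 h, room temperature, dark). EC50 = concentration giving half-maximal cAMP elevation, from curves of absolute cAMP (nM) vs log concentration.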
# human GLP-1 R = target: T2, human GLP-1 R (Homo sapiens, UniProt P43220); experiment: Human GLP-1 receptor (GLP-1 R) activity assay, cAMP induction (AlphaScreen) in HEK293 cells; type: cell-based
# T2 construct: expressed in transfected cells
# T2 sequence (P43220 24-463): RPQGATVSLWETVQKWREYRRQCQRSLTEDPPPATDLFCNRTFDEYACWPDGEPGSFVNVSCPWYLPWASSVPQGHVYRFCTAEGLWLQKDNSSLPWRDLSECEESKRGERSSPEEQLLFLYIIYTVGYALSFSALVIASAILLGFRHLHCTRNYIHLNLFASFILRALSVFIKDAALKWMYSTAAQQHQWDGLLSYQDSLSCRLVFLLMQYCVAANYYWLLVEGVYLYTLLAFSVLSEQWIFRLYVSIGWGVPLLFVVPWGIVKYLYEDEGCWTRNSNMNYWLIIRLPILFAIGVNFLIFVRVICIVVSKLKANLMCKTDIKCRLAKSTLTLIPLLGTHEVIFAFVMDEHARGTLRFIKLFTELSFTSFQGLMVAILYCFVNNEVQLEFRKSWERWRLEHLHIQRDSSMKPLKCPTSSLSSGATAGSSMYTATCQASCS
# Procedure, shortened: as §1
# [1] = Table 3, most comprehensive data
# [2] = Table 3, most comprehensive data, read-out: hGLP-1-R cAMP EC50 average value
# [3] = Table 2, HEK293 cells expressing human GIP R
# [4] = Table 2, HEK293 cells expressing human GLP-1 R, read-out: hGLP1-R cAMP EC50 average value
EC50 (human GIP R; [3]),EC50 (human GLP-1 R; [4]),"EC50 (human GIP R; Table 2a, secondary assay study)","EC50 (human GLP-1 R; Table 2a, secondary assay study, read-out: hGLP1-R cAMP EC50 average value)",Compound,EC50 (human GIP R; [1]),EC50 (human GLP-1 R; [2])
,,,,CC[C@H](C)[C@H](NC(=O)[C@H](CO)NC(=O)[C@H](Cc1ccc(O)cc1)NC(=O)[C@H](CC(=O)O)NC(=O)[C@H](CO)NC(=O)[C@@H](NC(=O)[C@H](Cc1ccccc1)NC(=O)[C@@H](NC(=O)CNC(=O)[C@H](CCC(=O)O)NC(=O)C(C)(C)NC(=O)[C@@H](N)Cc1ccc(O)cc1)[C@@H](C)O)[C@@H](C)O)C(=O)N[C@@H](C)C(=O)N[C@@H](CC(C)C)C(=O)N[C@@H](CC(=O)O)C(=O)N[C@@H](CCCCN)C(=O)N[C@@H](CCCCNC(=O)COCCOCCNC(=O)COCCOCCNC(=O)CC[C@H](NC(=O)CCCCCCCCCCCCCCCCCCC(=O)O)C(=O)O)C(=O)N[C@@H](C)C(=O)N[C@@H](CCC(N)=O)C(=O)N[C@@H](CCCNC(=N)N)C(=O)N[C@@H](C)C(=O)N[C@@H](Cc1ccccc1)C(=O)N[C@H](C(=O)N[C@@H](CCC(=O)O)C(=O)N[C@@H](Cc1c[nH]c2ccccc12)C(=O)N[C@@H](CC(C)C)C(=O)N[C@@H](CC(C)C)C(=O)N[C@@H](C)C(=O)N[C@@H](CCC(=O)O)C(=O)NCC(=O)N1CCC[C@H]1C(=O)N[C@@H](CO)C(=O)N[C@@H](CO)C(=O)NCC(=O)N[C@@H](C)C(=O)N1CCC[C@H]1C(=O)N1CCC[C@H]1C(=O)N1CCC[C@H]1C(=O)N[C@@H](CO)C(N)=O)C(C)C [Compound 55] (H-Y[Aib]EGTFTSDYSIALDKK([AEEA-AEEA-γGlu-C20 diacid])AQRAFVEWLLAEGPSSGAPPPS-NH2),0.016 nM,0.013 nM
0.014 nM,0.022 nM,,,CC[C@H](C)[C@H](NC(=O)[C@H](CO)NC(=O)[C@H](Cc1ccc(O)cc1)NC(=O)[C@H](CC(=O)O)NC(=O)[C@H](CO)NC(=O)[C@@H](NC(=O)[C@H](Cc1ccccc1)NC(=O)[C@@H](NC(=O)CNC(=O)[C@H](CCC(=O)O)NC(=O)C(C)(C)NC(=O)[C@@H](N)Cc1ccc(O)cc1)[C@@H](C)O)[C@@H](C)O)C(=O)N[C@@H](Cc1ccc(O)cc1)C(=O)N[C@@H](CC(C)C)C(=O)N[C@@H](CCC(=O)O)C(=O)N[C@@H](CCCCN)C(=O)N[C@@H](CCCCNC(=O)COCCOCCNC(=O)COCCOCCNC(=O)CC[C@H](NC(=O)CCCCCCCCCCCCCCCCC(=O)O)C(=O)O)C(=O)N[C@@H](C)C(=O)N[C@@H](CCC(N)=O)C(=O)N[C@@H](CCCNC(=N)N)C(=O)N[C@@H](C)C(=O)N[C@@H](Cc1ccccc1)C(=O)N[C@H](C(=O)N[C@@H](CCC(=O)O)C(=O)N[C@@H](Cc1c[nH]c2ccccc12)C(=O)N[C@@H](CC(C)C)C(=O)N[C@@H](CC(C)C)C(=O)N[C@@H](CCCNC(=N)N)C(=O)N[C@@H](C)C(N)=O)C(C)C [Compound 18] (H-Y[Aib]EGTFTSDYSIYLEKK([AEEA-AEEA-γGlu-C18 diacid])AQRAFVEWLLRA-NH2),,
,,,,CC[C@H](C)[C@H](NC(=O)[C@H](CO)NC(=O)[C@H](Cc1ccc(O)cc1)NC(=O)[C@H](CC(=O)O)NC(=O)[C@H](CO)NC(=O)[C@@H](NC(=O)[C@H](Cc1ccccc1)NC(=O)[C@@H](NC(=O)CNC(=O)[C@H](CCC(=O)O)NC(=O)C(C)(C)NC(=O)[C@@H](N)Cc1ccc(O)cc1)[C@@H](C)O)[C@@H](C)O)C(=O)N[C@@H](C)C(=O)N[C@@H](CC(C)C)C(=O)N[C@@H](CC(=O)O)C(=O)N[C@@H](CCCCN)C(=O)N[C@@H](CCCCNC(=O)COCCOCCNC(=O)COCCOCCNC(=O)CC[C@H](NC(=O)CCCCCCCCCCCCCCCCCCC(=O)O)C(=O)O)C(=O)N[C@@H](C)C(=O)N[C@@H](CCC(N)=O)C(=O)N[C@@H](CCCCN)C(=O)N[C@@H](CCC(=O)O)C(=O)N[C@@H](Cc1ccccc1)C(=O)N[C@H](C(=O)N[C@@H](CCC(=O)O)C(=O)N[C@@H](Cc1c[nH]c2ccccc12)C(=O)N[C@@H](CC(C)C)C(=O)N[C@@H](CC(C)C)C(=O)N[C@@H](C)C(=O)N[C@@H](CCC(N)=O)C(=O)NCC(=O)N1CCC[C@H]1C(=O)N[C@@H](CO)C(=O)N[C@@H](CO)C(=O)NCC(=O)N[C@@H](C)C(=O)N1CCC[C@H]1C(=O)N1CCC[C@H]1C(=O)N1CCC[C@H]1C(=O)N[C@@H](CO)C(N)=O)C(C)C [Compound 48] (H-Y[Aib]EGTFTSDYSIALDKK([AEEA-AEEA-γGlu-C20 diacid])AQKEFVEWLLAQGPSSGAPPPS-NH2),0.006 nM,0.052 nM
0.011 nM,0.016 nM,0.012 nM,0.017 nM,CC[C@H](C)[C@H](NC(=O)[C@H](CO)NC(=O)[C@H](Cc1ccc(O)cc1)NC(=O)[C@H](CC(=O)O)NC(=O)[C@H](CO)NC(=O)[C@@H](NC(=O)[C@H](Cc1ccccc1)NC(=O)[C@@H](NC(=O)CNC(=O)[C@H](CCC(=O)O)NC(=O)C(C)(C)NC(=O)[C@@H](N)Cc1ccc(O)cc1)[C@@H](C)O)[C@@H](C)O)C(=O)N[C@@H](Cc1ccc(O)cc1)C(=O)N[C@@H](CC(C)C)C(=O)N[C@@H](CC(=O)O)C(=O)N[C@@H](CCCCN)C(=O)N[C@@H](CCCCNC(=O)COCCOCCNC(=O)COCCOCCNC(=O)CC[C@H](NC(=O)CCCCCCCCCCCCCCCCC(=O)O)C(=O)O)C(=O)N[C@@H](C)C(=O)N[C@@H](CCC(N)=O)C(=O)N[C@@H](CCCNC(=N)N)C(=O)N[C@@H](C)C(=O)N[C@@H](Cc1ccccc1)C(=O)N[C@H](C(=O)N[C@@H](CC(N)=O)C(=O)N[C@@H](Cc1c[nH]c2ccccc12)C(=O)N[C@@H](CC(C)C)C(=O)N[C@@H](CC(C)C)C(=O)N[C@@H](C)C(=O)NC(C)(C)C(=O)N[C@@H](CCCCN)C(N)=O)C(C)C [Compound 12] (H-Y[Aib]EGTFTSDYSIYLDKK([AEEA-AEEA-γGlu-C18 diacid])AQRAFVNWLLA[Aib]K-NH2),,
,,,,CC[C@H](C)[C@H](NC(=O)[C@H](CO)NC(=O)[C@H](Cc1ccc(O)cc1)NC(=O)[C@H](CC(=O)O)NC(=O)[C@H](CO)NC(=O)[C@@H](NC(=O)[C@H](Cc1ccccc1)NC(=O)[C@@H](NC(=O)CNC(=O)[C@H](CCC(=O)O)NC(=O)C(C)(C)NC(=O)[C@@H](N)Cc1ccc(O)cc1)[C@@H](C)O)[C@@H](C)O)C(=O)N[C@@H](Cc1ccc(O)cc1)C(=O)N[C@@H](CC(C)C)C(=O)N[C@@H](CC(=O)O)C(=O)N[C@@H](CCCCN)C(=O)N[C@@H](CCCCNC(=O)COCCOCCNC(=O)COCCOCCNC(=O)[C@H](CN)NC(=O)CCCCCCCCCCCCCCCCCCC(=O)O)C(=O)N[C@@H](C)C(=O)N[C@@H](CCC(N)=O)C(=O)N[C@@H](CCCNC(=N)N)C(=O)N[C@@H](C)C(=O)N[C@@H](Cc1ccccc1)C(=O)N[C@H](C(=O)N[C@@H](CCC(=O)O)C(=O)N[C@@H](Cc1c[nH]c2ccccc12)C(=O)N[C@@H](CC(C)C)C(=O)N[C@@H](CC(C)C)C(=O)N[C@@H](C)C(=O)N[C@@H](CCC(N)=O)C(=O)NCC(=O)N1CCC[C@H]1C(=O)N[C@@H](CO)C(=O)N[C@@H](CO)C(=O)NCC(=O)N[C@@H](C)C(=O)N1CCC[C@H]1C(=O)N1CCC[C@H]1C(=O)N1CCC[C@H]1C(=O)N[C@@H](CO)C(N)=O)C(C)C [Compound 37] (H-Y[Aib]EGTFTSDYSIYLDKK([AEEA-AEEA-Dap-C20 diacid])AQRAFVEWLLAQGPSSGAPPPS-NH2),0.017 nM,0.014 nM

Compound,EC50 (human GIP R; [3]),EC50 (human GLP-1 R; [4]),"EC50 (human GIP R; Table 2a, secondary assay study)","EC50 (human GLP-1 R; Table 2a, secondary assay study, read-out: hGLP1-R cAMP EC50 average value)",EC50 (human GIP R; [1]),EC50 (human GLP-1 R; [2])
CC[C@H](C)[C@H](NC(=O)[C@H](CO)NC(=O)[C@H](CC(C)C)NC(=O)[C@H](CC(=O)O)NC(=O)[C@H](CO)NC(=O)[C@@H](NC(=O)[C@H](Cc1ccccc1)NC(=O)[C@@H](NC(=O)CNC(=O)[C@H](CCC(=O)O)NC(=O)C(C)(C)NC(=O)[C@@H](N)Cc1ccc(O)cc1)[C@@H](C)O)[C@@H](C)O)C(=O)N[C@@H](C)C(=O)N[C@@H](CC(C)C)C(=O)N[C@@H](CCC(=O)O)C(=O)N[C@@H](CCCCN)C(=O)N[C@@H](CCCCNC(=O)COCCOCCNC(=O)COCCOCCNC(=O)CC[C@H](NC(=O)CCCCCCCCCCCCCCCCCCC(=O)O)C(=O)O)C(=O)N[C@@H](C)C(=O)N[C@@H](CCC(N)=O)C(=O)N[C@@H](CCCNC(=N)N)C(=O)N[C@@H](C)C(=O)N[C@@H](Cc1ccccc1)C(=O)N[C@H](C(=O)N[C@@H](CCC(=O)O)C(=O)N[C@@H](Cc1c[nH]c2ccccc12)C(=O)N[C@@H](CC(C)C)C(=O)N[C@@H](CC(C)C)C(=O)N[C@@H](C)C(=O)N[C@@H](CCC(N)=O)C(=O)NCC(=O)N1CCC[C@H]1C(=O)N[C@@H](CO)C(=O)N[C@@H](CO)C(=O)NCC(=O)N[C@@H](C)C(=O)N1CCC[C@H]1C(=O)N1CCC[C@H]1C(=O)N1CCC[C@H]1C(=O)N[C@@H](CO)C(N)=O)C(C)C [Compound 33] (H-Y[Aib]EGTFTSDLSIALEKK([AEEA-AEEA-γGlu-C20 diacid])AQRAFVEWLLAQGPSSGAPPPS-NH2),0.009 nM,0.014 nM,,,0.009 nM,
